Active and inactive are the calls of the source.
Key:
[1] = molecular target: Glucose-6-phosphate 1-dehydrogenase (Homo sapiens, UniProt P11413); test: inhibition of Homo sapiens G6PD, dose series – biochemical, fluorescence, selectivity assay for P. falciparum G6PD inhibitor project, dose response (AID 504792); type: functional
Coagulation factor XII = molecular target: T1, Coagulation factor XII (Homo sapiens, UniProt P00748); type: functional;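 further: activated factor XIIa alpha cleaving a fluorogenic AMC peptide substrate; inhibitor potency from loss of enzyme activity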
T1 sequence (P00748 whole entry): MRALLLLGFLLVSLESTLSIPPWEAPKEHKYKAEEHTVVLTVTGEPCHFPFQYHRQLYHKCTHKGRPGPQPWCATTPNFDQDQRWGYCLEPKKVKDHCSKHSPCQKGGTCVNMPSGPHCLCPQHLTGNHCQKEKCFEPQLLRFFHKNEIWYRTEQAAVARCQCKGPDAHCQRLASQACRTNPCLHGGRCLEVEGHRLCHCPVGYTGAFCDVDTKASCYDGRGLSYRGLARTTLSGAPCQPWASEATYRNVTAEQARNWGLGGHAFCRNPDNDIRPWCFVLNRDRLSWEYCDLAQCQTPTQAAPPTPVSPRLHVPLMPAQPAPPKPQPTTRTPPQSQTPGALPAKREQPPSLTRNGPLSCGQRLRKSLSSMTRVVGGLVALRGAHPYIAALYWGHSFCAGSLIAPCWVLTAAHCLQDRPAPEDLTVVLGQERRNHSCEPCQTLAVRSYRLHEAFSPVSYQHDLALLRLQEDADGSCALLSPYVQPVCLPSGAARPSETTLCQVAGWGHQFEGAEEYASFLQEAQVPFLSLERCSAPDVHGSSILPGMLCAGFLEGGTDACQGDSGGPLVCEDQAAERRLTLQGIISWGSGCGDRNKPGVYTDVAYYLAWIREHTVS

[2] = molecular target: T2, Sentrin-specific protease 1 (Homo sapiens, UniProt Q9P0U3); test: SENP1 catalytic domain blockers, concentration series – biochemical, kinetic FRET, dose response (AID 651697); type: functional; settings: read-out: IC50_Mean
T2 sequence (Q9P0U3 whole entry): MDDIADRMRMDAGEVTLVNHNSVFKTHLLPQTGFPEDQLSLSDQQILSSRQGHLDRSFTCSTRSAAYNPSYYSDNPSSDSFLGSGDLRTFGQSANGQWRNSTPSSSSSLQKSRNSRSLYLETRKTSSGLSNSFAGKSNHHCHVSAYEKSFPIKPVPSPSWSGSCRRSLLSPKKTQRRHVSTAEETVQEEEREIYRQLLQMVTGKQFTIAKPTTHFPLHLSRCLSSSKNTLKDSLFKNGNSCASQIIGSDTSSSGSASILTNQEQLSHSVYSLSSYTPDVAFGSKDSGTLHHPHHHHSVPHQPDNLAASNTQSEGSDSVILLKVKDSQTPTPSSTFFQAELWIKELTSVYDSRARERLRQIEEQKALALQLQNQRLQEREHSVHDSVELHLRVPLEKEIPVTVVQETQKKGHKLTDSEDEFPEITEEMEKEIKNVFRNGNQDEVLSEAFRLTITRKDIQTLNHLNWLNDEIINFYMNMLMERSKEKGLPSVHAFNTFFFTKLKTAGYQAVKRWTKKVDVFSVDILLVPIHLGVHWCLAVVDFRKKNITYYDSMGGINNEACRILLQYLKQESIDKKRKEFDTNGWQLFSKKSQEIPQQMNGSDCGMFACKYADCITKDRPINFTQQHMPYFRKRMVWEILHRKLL

[3] = molecular target: T2, Sentrin-specific protease 1; test: Dose response confirmation of small molecule inhibitors of the catalytic domain of the SUMO protease, SENP1 in a FRET assay.; type: functional; settings: read-out: IC50_Mean
[4] = bead-based luminescence quenchers, dual-tagged ARNT – biochemical, AlphaScreen, cherry-pick, artefact control for ARNT-TACC3 interaction inhibitor project, dose response (AID 651705); type: functional;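 further: AlphaScreen bead proximity signal that flags compounds interfering with the detection technology; potency reflects signal decrease which marks the compound as an assay artifact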
[5] = molecular target: T3, Latent membrane protein 1 (Human herpesvirus 4 (strain B95-8), UniProt P03230); test: LMP1 TES1 pathway selectivity over dsRED control – imaging, HEK293T, dual-color eGFP/dsRED, cherry-picks, selectivity assay for LMP1 NF-kB inhibitor project, dose response (AID 588398); type: functional, cell-based
T3 sequence (P03230 whole entry): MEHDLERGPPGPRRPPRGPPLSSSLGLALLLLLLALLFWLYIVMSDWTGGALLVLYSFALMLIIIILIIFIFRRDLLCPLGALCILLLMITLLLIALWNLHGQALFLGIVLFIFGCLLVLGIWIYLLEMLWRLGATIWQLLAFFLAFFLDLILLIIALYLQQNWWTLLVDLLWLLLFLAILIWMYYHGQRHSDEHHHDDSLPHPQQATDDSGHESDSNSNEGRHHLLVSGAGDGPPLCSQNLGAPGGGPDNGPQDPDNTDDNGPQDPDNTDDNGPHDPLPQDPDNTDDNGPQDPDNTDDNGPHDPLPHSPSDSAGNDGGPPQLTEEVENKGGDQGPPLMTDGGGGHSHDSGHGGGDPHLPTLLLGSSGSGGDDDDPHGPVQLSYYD

[6] = molecular target: T4, Mitochondrial peptide methionine sulfoxide reductase (Bos taurus, UniProt P54149); type: functional;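 further: absorbance read-out, biochemical high-throughput dose-response screen for MsrA inhibitors, confirmatory; recombinant bovine MsrA coupled to E. coli TrxB with NADPH and selenocystamine; potency is for inhibitors of MsrA activity on DMSO substrate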
T4 sequence (P54149 whole entry): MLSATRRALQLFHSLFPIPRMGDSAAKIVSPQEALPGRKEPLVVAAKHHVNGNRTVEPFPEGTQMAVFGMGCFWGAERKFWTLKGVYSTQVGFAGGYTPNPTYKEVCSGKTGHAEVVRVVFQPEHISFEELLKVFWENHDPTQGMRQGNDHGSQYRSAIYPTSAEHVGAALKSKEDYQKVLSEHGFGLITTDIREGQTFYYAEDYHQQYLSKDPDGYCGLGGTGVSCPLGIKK

HeLa = test: ATP-based viability loss in HeLa cells – cell-based, CellTiter-Glo luminescence, cherry-pick samples, cytotoxicity control for MITF activator project, dose response (AID 540259); type: functional; settings: Homo sapiens
[7] = molecular target: Adenosylmethionine-8-amino-7-oxononanoate aminotransferase (Mycobacterium tuberculosis, UniProt P9WQ81); test: Mycobacterium tuberculosis BioA enzyme inhibitor Measured in Biochemical System Using Plate Reader - 2163-02_Inhibitor_Dose_CherryPick_Activity.; type: functional, Mycobacterium tuberculosis UT205
Beta-galactosidase = Beta-galactosidase (Escherichia coli, UniProt Q8VNN2); test: PubChem AID 485352; type: functional
[8] = molecular target: T5, Type-1 angiotensin II receptor (Homo sapiens, UniProt P30556); test: antagonism of angiotensin II type 1 receptor – cell-based, uHTS hits, selectivity assay for APJ receptor antagonist project, dose response (AID 463214); type: functional;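 further: antagonist potency against angiotensin II stimulated AT1 response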
T5 sequence (P30556 whole entry): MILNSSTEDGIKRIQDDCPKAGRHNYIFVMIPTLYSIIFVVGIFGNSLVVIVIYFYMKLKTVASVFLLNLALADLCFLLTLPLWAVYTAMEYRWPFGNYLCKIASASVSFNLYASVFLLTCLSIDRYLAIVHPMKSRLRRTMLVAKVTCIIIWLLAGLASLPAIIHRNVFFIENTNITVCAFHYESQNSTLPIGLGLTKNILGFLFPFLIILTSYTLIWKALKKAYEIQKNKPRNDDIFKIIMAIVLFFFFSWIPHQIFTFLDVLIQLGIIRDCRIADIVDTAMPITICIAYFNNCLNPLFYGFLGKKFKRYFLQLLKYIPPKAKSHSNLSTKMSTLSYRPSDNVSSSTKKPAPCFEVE

Chain of Beta-galactosidase (Q8VNN2 whole entry): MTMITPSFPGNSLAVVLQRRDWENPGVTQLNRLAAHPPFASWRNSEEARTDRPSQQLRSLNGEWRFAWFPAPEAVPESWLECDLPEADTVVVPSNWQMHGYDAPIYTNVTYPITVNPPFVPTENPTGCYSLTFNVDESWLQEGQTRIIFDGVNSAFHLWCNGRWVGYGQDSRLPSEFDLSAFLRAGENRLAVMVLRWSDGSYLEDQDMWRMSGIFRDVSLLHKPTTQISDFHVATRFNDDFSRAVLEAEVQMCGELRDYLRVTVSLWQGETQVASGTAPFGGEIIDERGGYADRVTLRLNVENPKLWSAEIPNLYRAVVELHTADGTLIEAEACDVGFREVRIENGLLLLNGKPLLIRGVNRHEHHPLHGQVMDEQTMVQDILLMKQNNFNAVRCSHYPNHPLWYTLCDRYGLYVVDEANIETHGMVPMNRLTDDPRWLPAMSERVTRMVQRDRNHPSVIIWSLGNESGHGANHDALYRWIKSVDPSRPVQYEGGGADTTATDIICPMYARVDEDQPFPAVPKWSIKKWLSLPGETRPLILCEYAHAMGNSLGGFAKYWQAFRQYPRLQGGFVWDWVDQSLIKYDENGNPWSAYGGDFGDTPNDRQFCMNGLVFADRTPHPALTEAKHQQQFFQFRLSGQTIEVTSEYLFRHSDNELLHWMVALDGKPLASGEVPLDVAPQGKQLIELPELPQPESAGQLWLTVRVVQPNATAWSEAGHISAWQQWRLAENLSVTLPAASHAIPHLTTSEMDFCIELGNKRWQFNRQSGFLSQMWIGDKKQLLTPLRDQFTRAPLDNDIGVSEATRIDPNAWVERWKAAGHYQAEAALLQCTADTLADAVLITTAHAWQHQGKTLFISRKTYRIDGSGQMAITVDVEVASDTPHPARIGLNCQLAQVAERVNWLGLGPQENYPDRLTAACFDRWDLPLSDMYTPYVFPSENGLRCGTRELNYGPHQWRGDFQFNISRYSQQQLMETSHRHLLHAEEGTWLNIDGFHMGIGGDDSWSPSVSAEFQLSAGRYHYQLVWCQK
Chain of Adenosylmethionine-8-amino-7-oxononanoate aminotransferase (P9WQ81 whole entry): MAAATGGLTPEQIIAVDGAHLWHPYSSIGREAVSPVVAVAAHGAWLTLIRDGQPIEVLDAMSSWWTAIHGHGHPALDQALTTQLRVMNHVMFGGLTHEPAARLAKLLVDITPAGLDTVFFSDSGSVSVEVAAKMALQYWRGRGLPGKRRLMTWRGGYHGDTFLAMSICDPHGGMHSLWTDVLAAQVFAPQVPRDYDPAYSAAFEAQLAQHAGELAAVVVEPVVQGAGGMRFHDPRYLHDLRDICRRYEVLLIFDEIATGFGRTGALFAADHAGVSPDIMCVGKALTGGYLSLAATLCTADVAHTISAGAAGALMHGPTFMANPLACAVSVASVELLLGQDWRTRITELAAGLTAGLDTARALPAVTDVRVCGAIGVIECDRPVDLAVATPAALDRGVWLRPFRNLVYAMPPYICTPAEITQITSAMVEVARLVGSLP
Chain of Glucose-6-phosphate 1-dehydrogenase (P11413 whole entry): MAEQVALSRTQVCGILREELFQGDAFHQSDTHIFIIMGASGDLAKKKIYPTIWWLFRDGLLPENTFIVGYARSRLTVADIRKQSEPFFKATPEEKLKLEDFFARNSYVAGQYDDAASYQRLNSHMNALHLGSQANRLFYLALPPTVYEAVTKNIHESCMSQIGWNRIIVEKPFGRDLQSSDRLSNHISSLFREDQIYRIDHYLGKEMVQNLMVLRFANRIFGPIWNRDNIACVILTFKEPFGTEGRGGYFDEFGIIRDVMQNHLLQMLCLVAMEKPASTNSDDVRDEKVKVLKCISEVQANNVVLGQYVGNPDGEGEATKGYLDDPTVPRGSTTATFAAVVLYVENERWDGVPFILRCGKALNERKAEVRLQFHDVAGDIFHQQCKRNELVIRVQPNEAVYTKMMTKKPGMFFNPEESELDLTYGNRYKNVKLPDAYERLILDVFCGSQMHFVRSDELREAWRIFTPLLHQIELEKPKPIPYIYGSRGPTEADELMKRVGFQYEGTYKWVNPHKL

## COc1ccc(C(=O)ON=C2C=C(C)C(=O)C(C)=C2)cc1
[1]
  IC50: > 80 µM (inactive)
Coagulation factor XII
  IC50: 0.574 µM (active)

## Oc1nncc2c3ccccc3n(Cc3cccc(Cl)c3)c12
[2]
  IC50: 4.55 µM (active)
[3]
  IC50: 4.44 µM (active)

## COc1cccc(C2c3[nH]c4ccccc4c3CCN2Cc2ncc[nH]2)c1 (stereo not drawn)
[4]
  AC50: 123 µM (active)

## Cn1cc(CC(=O)NCCCN2CCCC2)c2ccccc21
[5]
  AC50: 43.5 µM (active)

## Cc1ccc(C2=N/C(=C/N3CCOCC3)C(=O)O2)cc1
[6]
  IC50: 142 µM (inactive)

## Cc1ccc(NC(=O)Nc2ccc3c(c2)N(C)C(=O)CS3)nc1
HeLa
  AC50: > 350 µM (inactive)

## Fc1ccc2nc(N3CCCC3)sc2c1
HeLa
  AC50: 42.8 µM (active)

## Nn1c(SCc2nc3ccccc3[nH]2)nnc1-c1cccnc1
[7]
  AC50: 5.06 µM (active)

## O=C(Nc1ccccc1Cl)c1ccc2nccnc2c1
HeLa
  AC50: 67.6 µM (active)

## COc1ccc(-c2cc(-c3ccccc3)nc(NN)n2)cc1OC
Beta-galactosidase
  EC50: > 40 µM (inactive)
[8]
  IC50: 11.2 µM (active)

— ChEMBL document CHEMBL1201862, “PubChem BioAssay data set” (2004)
